Row | Structure (SMILES) | melting point [°C]
1 | CN(Cc1ccccc1)c1ncnc2c(N3CCOCC3)nc(N3CCC(NCc4ccccc4)CC3)nc12 | 103 to 106
2 | NC1=Nc2ccc(OC(F)(F)F)cc2SC1 | 94 to 96
3 | O=c1c2c(Cc3ccccc3)n[nH]c2c2cccnc2n1-c1ccc(O)cc1 | > 320
4 | OCCCCCCCCCCCOc1ccc(O)cc1 | 99 to 100
5 | Cc1c(S(=O)(=O)Nc2ccc(-c3nc(CO)cs3)cc2S(C)(=O)=O)sc2ccc(F)cc12 | 209 to 210
6 | OCCCCCCCCCCCCCCCCc1c[nH]c2ccccc12 | 79 to 80
7 | Clc1ccc2nc(NCC3CCN(CC4COc5ccccc5O4)CC3)sc2c1 (centres undefined) | 156
8 | CCCCCCc1ccc2c(c1)NC(NC(C)C)=NS2(=O)=O | 319 to 321
9 | Cc1nc(-n2ccc(OCc3ccccc3)cc2=O)sc1C(=O)NCc1ccccc1 | 219 to 220
10 | COC(=O)C(CCSC)N(C(=O)OC(C)(C)C)C(=O)c1ccc(N)c2ccccc12 (centres undefined) | 131 to 132
11 | COc1ccc(C2=NN(C(C)CCC(=O)Nc3ccc(C4=NNC(=O)CC4C)cc3)C(=O)C3CC=CCC23)cc1OC (centres undefined) | 154 to 157
12 | CC1(C)[C@H](Cl)CC[C@]2(CI)OC(=O)C[C@H]12 | 127 to 128
13 | COc1cccc(CC(=O)O)c1OCCCc1cn(-c2nnc(C(F)(F)F)s2)nc1C(C)C | 114 to 115
14 | CC(C)(C)OOC(C)(CCC(=O)N(N)C(=O)OCCOCCOC(=O)N(N)C(=O)CCC(C)(OOC(C)(C)C)OOC(C)(C)C)OOC(C)(C)C | 45 to 50
15 | COCc1nc2c(OC)ccc(C(O)(Cc3ccncc3)Cc3ccncc3)c2[nH]1 | 210
16 | CCOC(=O)c1csnc1-c1ccc(Cl)cc1 | 70.5 to 71.5
17 | CCOC(=O)c1ccc(NCCCc2ccc(Cl)cc2)cc1 | 122 to 124
18 | CC(=O)NCCC1CCc2ccc3nn(C)cc3c21 (centres undefined) | 123 to 125
19 | CC(=O)NCC1CN(c2ccc(N3CCC(n4ccnn4)C(F)C3)c(F)c2)C(=O)O1 (centres undefined) | 158 to 160
20 | COC(=O)CCCc1ccc(C(=O)CCCc2ccccc2)cc1 | 61 to 62
21 | CC(C)(C)OC(=O)NCC1CNC1 | 112 to 114

Row | Structure (SMILES) | melting point [°C]
22 | O=C1O[C@@H]2C[C@@]1(O)c1cc(-c3ccccc3)sc1[C@H]2O | 168 to 173
23 | COc1ccc2ccc(I)cc2c1 | 116
24 | CSc1cccc(NC(=O)NCC(=O)N2[C@@H](C(=O)OC(C)(C)C)C[C@H](C(=O)O)[C@H]2c2ccccc2)c1 (racemic) | 130
25 | O=C(Nc1ccc(Oc2ccnc(NC3CCCCC3)n2)c2ccccc12)c1cc(F)cc(N2CCOCC2)c1 | 135 to 136
26 | CCOC(=O)Cn1c(-c2ccc(Cl)c(Cl)c2)nc2cccnc21 | 141 to 142
27 | N#CC(Cl)Cc1ccc([N+](=O)[O-])cc1 (centres undefined) | 112
28 | Cc1c(C(=O)O)ccn2nc(-c3ccccc3)nc12 | > 250
29 | CC12CCCc3cc(NC(=O)c4ccc(C(=O)O)cn4)cc(c31)CCC2 | 212 to 213
30 | O=C(CCl)N1CCSC1CCc1ccccc1O (centres undefined) | 98
31 | CC(C)S(=O)c1ccc2[nH]nc(Nc3nccs3)c2c1 (centres undefined) | > 240
32 | Cc1cc(C(N)=O)c2c(c1)C(C(Cl)(Cl)Cl)OC(C(Cl)(Cl)Cl)O2 (centres undefined) | 281 to 283
33 | O=CC(=Cc1cccc(Cl)c1)C(C=O)=Cc1cccc(Cl)c1 | 107 to 108
34 | CC(C)CC(NS(=O)(=O)c1ccc(Cl)cc1)C(=O)Nc1ccc(CC(=O)O)cc1 (racemic) | 208 to 209
35 | CCNc1nc(C)c(-c2ccnc(Nc3ccc(N4CCN(C(C)=O)CC4)cc3)n2)s1 | 208 to 209
36 | CN1Sc2sccc2C=C1CO | 128 to 130
37 | C=CCNc1nc(NCC=C)nc(NCCC2CC(C)(C)NC(C)(C)C2)n1 | 74 to 75
38 | C=CCNc1nc(NCc2ccccc2)nc2ccc([N+](=O)[O-])cc12 | 216 to 217
39 | COc1ccc(NC(C)C)c(S)c1 | 68 to 69
40 | COC(=O)CC1Cc2ccc(O)cc2NC1=O (centres undefined) | 178 to 180
41 | CCC1(C)CN(c2c(F)c(N)c3c(=O)c(C(=O)O)cn(C4CC4)c3c2OC)CCC1NC (centres undefined) | 164 to 166
42 | COc1ccc(-c2c[nH]c(=O)nc2C)cc1 | 210

Row | Structure (SMILES) | melting point [°C]
43 | CCOC(=O)c1sc(CBr)nc1C | 48 to 58
44 | COC(=O)C=Cc1ccc(-c2ccccc2C(F)(F)F)c(C(F)(F)F)c1 | 97 to 98
45 | CCOC(=O)C1[C@@H]2[C@@H](O)[C@@H]3O[C@H](c4cccc(OC)c4)OC[C@H]3O[C@H]12 (some centres undefined) | 107
46 | C#CCON=Cc1cc(Cl)ccc1O | 71 to 73
47 | O=C(COc1cc(-c2cccc(Cl)c2)nc2ccccc12)N1CCOCC1 | 131
48 | CC(=O)c1cccc2c1CCc1ccccc1C2=O | 65 to 68
49 | CCOC(=O)c1ccccc1-n1c(=O)[nH]c2ccccc2c1=O | 196 to 197
50 | OCC(Nc1ccnc2cc(Cl)ccc12)c1ccccc1 (centres undefined) | 220 to 221
51 | CCCCc1ccc(C(O)=S)nc1 | 99
52 | Cc1ccc(C(=O)C=CN(C)C)cc1C | 108 to 110
53 | O=C(NCc1ccccc1)c1ccnc(NC(=O)c2ccc(C(F)(F)F)cc2)c1 | 181 to 183
54 | O=c1c2c(c1=O)Nc1cc(Cl)c(Cl)cc1N2 | > 360
55 | CSCCC(=O)Nc1sc(-c2cccnc2)nc1SC | 72 to 74
56 | Cc1ccc(NCC2CCN(C3CCCCC3)CC2)c(C(=O)Nc2ccc(Cl)cn2)c1 | 179 to 182
57 | CC(C)(C)c1cc(Oc2ccc([N+](=O)[O-])c(O)c2)ccc1Oc1ccc([N+](=O)[O-])c(O)c1 | 156 to 158
58 | CC(=O)NC(=O)C(SC(C)=O)c1ccccc1 (centres undefined) | 96
59 | CC1(C)OC(=O)Nc2ccc(-c3cc(F)cc(C(F)(F)F)c3)cc21 | 207 to 208
60 | CCCOc1ccc(S(=O)(=O)N2CCN(C(C)=O)CC2)cc1-c1nc2cc(N)c([N+](=O)[O-])cc2c(=O)[nH]1 | 249 to 251
61 | COc1cc(O)c2c(=O)c(OC)c(-c3ccc(OC(=O)C(C)(C)C)c(OC)c3)oc2c1 | 163 to 164

More lines, now with the values ahead:

Row | melting point [°C] | Structure (SMILES)
62 | 164 to 165 | O=C(O)[C@H](Cc1ccccc1)NS(=O)(=O)c1ccc(N2CCC(Cc3ccccc3)CC2)cc1
63 | 140 | Fc1cnccc1Nn1ccc2cc(OCc3ccccc3)ccc21
64 | 136 to 140 | COc1cccc(OC)c1C(=O)Nc1ccc(OCCN2CCCC2)cc1
65 | 188 | Cc1cc(COc2ccc(S(=O)(=O)NC[C@@H](C(=O)NO)N3CCN(Cc4ccccc4)CC3)cc2)c2ccccc2n1
66 | 179 to 181 | O=C(O)C=Cc1cccc2cc[nH]c12
67 | 164 | C[C@H](NC(=O)OC(C)(C)C)C(=O)ON1C(=O)CCC1=O
68 | 174 | CC(C)(C)OC(=O)[C@H]1CC[C@@H](c2ccccn2)N1C(=O)CNC(=O)Nc1cccc(C(=O)O)c1 (racemic)
69 | 78 to 79 | CCCN1Cc2cscc2Nc2ccccc21
70 | 114 to 115 | C=C(C)COc1ccc(C(=O)C=Cc2ccccc2)c(O)c1
71 | 275 to 277 | C#CCNC(=O)c1ncn2c1CN(C)C(=O)c1sccc1-2
72 | 98 to 100 | OC(Cn1cncn1)(c1ccc(Cl)cn1)c1ccc(Cl)cn1
73 | 102 to 103 | CC(=Cc1ccccc1)c1ccc2c(c1)C(C)(C)CC(O)C2(C)C (centres undefined)
74 | 195 to 197 | CCCCCCC(=O)Nc1ncnc(NC2CC2)n1
75 | 96 to 98 | CCCN1C(=O)CN(C)C1S(=O)(=O)N=NC(=O)Nc1nc(OC)cc(OC)n1 (centres undefined)
76 | 257 to 260 | CCc1ccc(-c2ccc3c(c2)C=C(C(=O)Nc2ccc(CN(C)C4CCOCC4)cc2)CCS3(=O)=O)cc1
77 | 164 to 167 | Cc1cccc(C(=O)c2ccc(OCCOc3ccc(C(=O)c4cccc(C)c4)cc3)cc2)c1
78 | 139 to 142 | CCOC(=O)c1cc(NC(=O)C(N)Cc2ccccc2)c[nH]1 (centres undefined)
79 | 189 | Clc1ccc2c(c1)N(c1ncnc3cc(Cl)ccc13)CC2
80 | 88 | COC(=O)c1cc(C#CCOC2CCCCO2)c(C(F)(F)F)cc1N (centres undefined)

Row | melting point [°C] | Structure (SMILES)
81 | 151 to 153 | CC(=O)OCC(=O)Nc1cccc(NC(=O)COC(C)=O)c1C#N
82 | 178 to 179 | CCc1nc(Cc2ccc(NC(=O)/C=C/c3cnn(C)c3-c3ccc(F)cc3)cc2)cs1
83 | 73 to 74 | CCCCCCN(C)C(=O)c1cccc(CN2C(=O)C3(COc4cc5c(cc43)CCO5)c3ccccc32)c1 (centres undefined)
84 | 68 to 69 | C#Cc1ccc(Oc2cc(C(=O)Cl)cc(C(=O)Cl)c2)cc1
85 | 125 to 128 | CC(C)C(NC(=O)c1ccccc1)C(=O)O (racemic)
86 | 75 to 76 | CCCCCCCC(=O)c1ccc(CCC(CC)(COC(C)=O)NC(C)=O)cc1 (centres undefined)
87 | 233 | Cc1cc2c(cc1Cl)NC(=O)C2(N)c1ccccc1Cl (centres undefined)
88 | 161 to 165 | CCN1C(=O)C(C)(C)C(=O)N(C)c2cc(CN(CCn3ccc4occc4c3=O)Cc3cc(C)nn3C)ccc21
89 | 179 to 183 | CC(=O)NC1CCc2[nH]c3c(F)cc(F)cc3c2C1 (centres undefined)
90 | 155 to 160 | CC(=O)Nc1ccc(CCC2(c3ccccc3)CC(O)=CC(=O)O2)cc1 (centres undefined)
91 | 81 to 82 | COCCN(C)c1nccc(Oc2ccc(NC(=O)c3cc(F)cc(N4CCCCC4)c3)c3ccccc23)n1
92 | 248 to 250 | ON=c1cc(-c2cn3cccc3cn2)oc2ccc(OCCc3ccc(F)cc3)cc12
93 | 67 to 71 | Cn1c(C(F)(F)F)cc(=O)n(-c2c(F)cc(Cl)c3[nH]c(=O)oc23)c1=O
94 | 218 | CC(C)Oc1cccc(Nc2cc(-c3c[nH]nc3-c3ccccn3)ccn2)c1
95 | 138 to 140 | COC(=O)C(CO)N(Cc1ccccc1N)S(=O)(=O)c1ccc(OC)cc1 (centres undefined)
96 | 222 to 223 | CN(c1cc(OC(F)(F)F)cc2cc(C(=O)NCCSC(c3ccccc3)(c3ccccc3)c3ccccc3)[nH]c12)S(=O)(=O)c1cccs1
97 | 208 to 211 | OCc1c(Cl)cc(Cl)cc1C(O)(Cn1ccnc1)c1ccc(Cl)cc1Cl (centres undefined)
98 | 147 to 148 | N#Cc1cc(N)ccc1N1CCOCC1
99 | 216 to 217 | O=C(NC(Cc1ccccc1F)C(=O)N1CCSC1)c1cc2cc(Cl)ccc2[nH]1 (centres undefined)

Reference: a melting point compilation (Tetko et al.; mined from patent text by program, amines drawn as free bases though some values may be those of a salt)
